The structures appear in SMILES notation. Structures can show the parent of a compound that is named as a salt.

This assay deals with C57BL/6 mice. Nature of the assay: animal or person. In kind it is in vivo. To be noted: Mus musculus, sc, 0.5 h, s.c. administration, 30 min, 55° C. water, read-out: ED50 (mg/kg) at 30 min on C57BL/6 mice in Warm-water Tail-flick Test. (Thermal pain tests record how soon the animal reacts.)

Regarding `Fc1cncc(CN2CCC(CCc3ccccc3)(C3CCCO3)C2)c1` (stereo not drawn) [Compound 241, 3-fluoro-5-((3-phenethyl-3-(tetrahydrofuran-2-yl)pyrrolidin-1-yl)methyl)pyridine], the ED50 was > 10 mg/kg.
Then `COc1cncc(CN2CCC(CCc3ccccc3)(C3CCCO3)C2)c1` (stereo not drawn) [Compound 242, 3-methoxy-5-((3-phenethyl-3-(tetrahydrofuran-2-yl)pyrrolidin-1-yl)methyl)pyridine], with > 10 mg/kg; and `Clc1cncc(CN2CCC(CCc3ccccc3)(C3CCCO3)C2)c1` (stereo not drawn) [Compound 243, 3-chloro-5-((3-phenethyl-3-(tetrahydrofuran-2-yl)pyrrolidin-1-yl)methyl)pyridine], with > 10 mg/kg.
Next, `CCOCC1(CCc2ccccc2)CCN(Cc2cccnc2)CC1` [Compound 244, 3-((4-(ethoxymethyl)-4-phenethylpiperidin-1-yl)methyl)pyridine]: < 10 mg/kg; `CCOCC1(CCc2ccccc2)CCN(Cc2cnn(C)c2)CC1` [Compound 245, 4-(ethoxymethyl)-1-((1-methyl-1H-pyrazol-4-yl)methyl)-4-phenethylpiperidine]: < 10 mg/kg; `CCOCC1(CCc2ccccc2)CCN(Cc2ccnn2C)CC1` [Compound 246, 4-(ethoxymethyl)-1-((1-methyl-1H-pyrazol-5-yl)methyl)-4-phenethylpiperidine]: > 10 mg/kg.
Next, `CCOCC1(CCc2cccs2)CCN(Cc2cccnc2)CC1` [Compound 247, 3-((4-(ethoxymethyl)-4-(2-(thiophen-2-yl)ethyl)piperidin-1-yl)methyl)pyridine]: < 10 mg/kg; `c1ccc(CCC2(C3CCCO3)CCN(CCc3cccnc3)C2)cc1` (stereo not drawn) [Compound 248, 3-(2-(3-phenethyl-3-(tetrahydrofuran-2-yl)pyrrolidin-1-yl)ethyl)pyridine]: > 10 mg/kg.
As for `CCOCC1(CCc2ccccc2)CCN(Cc2cccnc2)C1` (stereo not drawn) [Compound 249, 3-((3-(ethoxymethyl)-3-phenethylpyrrolidin-1-yl)methyl)pyridine], the ED50 was < 10 mg/kg.
Turning to `CCOCC1(CCc2ccsc2)CCN(Cc2cnn(C)c2)C1` (stereo not drawn) [Compound 250, 4-((3-(ethoxymethyl)-3-(2-(thiophen-3-yl)ethyl)pyrrolidin-l-yl)methyl)-1-methyl-1H-pyrazole], the ED50 was < 10 mg/kg.
Take `CCOCC1(CCc2cccs2)CCN(Cc2cccnc2)C1` (stereo not drawn) [Compound 251, 3-((3-(ethoxymethyl)-3-(2-(thiophen-2-yl)ethyl)pyrrolidin-1-yl)methyl)pyridine]: the ED50 was < 10 mg/kg.
Next, `CCOCC1(CCc2ccsc2)CCN(Cc2cccnc2)C1` (stereo not drawn) [Compound 252]: < 10 mg/kg.
Take `CCOCC1(CCc2ccsc2)CCN(Cc2cnc(C)s2)C1` (stereo not drawn) [Compound 253, 5-((3-(ethoxymethyl)-3-(2-(thiophen-3-yl)ethyl)pyrrolidin-l-yl)methyl)-2-methylthiazole]: the ED50 was > 10 mg/kg.
Turning to `CCOCC1(CCc2cccs2)CCN(Cc2cnc(C)s2)CC1` [Compound 254], the ED50 was > 10 mg/kg.
Then `CCOCC1(CCc2ccsc2)CCN(Cc2cnc(C)s2)CC1` [Compound 255, 5-((4-(ethoxymethyl)-4-(2-(thiophen-3-yl)ethyl)piperidin-1-yl)methyl)-2-methylthiazole], with > 10 mg/kg; and `CCOCC1(CCc2cccs2)CCN(Cc2cnn(CC)c2)CC1` [Compound 256, 4-(ethoxymethyl)-1-((l-ethyl-1H-pyrazol-4-yl)methyl)-4-(2-(thiophen-2-yl)ethyl)piperidine], with < 10 mg/kg; and `Cc1cncc(CN2CCC(CCc3ccccc3)(C3CCCO3)C2)c1` (stereo not drawn) [Compound 257, 3-methyl-5-((3-phenethyl-3-(tetrahydrofuran-2-yl)pyrrolidin-1-yl)methyl)pyridine], with < 10 mg/kg.
Then `Cc1ccncc1CN1CCC(CCc2ccccc2)(C2CCCO2)C1` (stereo not drawn) [Compound 262, 4-methyl-3-((3-phenethyl-3-(tetrahydrofuran-2-yl)pyrrolidin-1-yl)methyl)pyridine], with > 10 mg/kg; and `Cc1ncccc1CN1CCC(CCc2ccccc2)(C2CCCO2)C1` (stereo not drawn) [Compound 263, 2-methyl-3-((3-phenethyl-3-(tetrahydrofuran-2-yl)pyrrolidin-1-yl)methyl)pyridine], with < 10 mg/kg.
Then `Cc1ccc(CN2CCC(CCc3ccccc3)(C3CCCO3)C2)cn1` (stereo not drawn) [Compound 264, 2-methyl-5-((3-phenethyl-3-(tetrahydrofuran-2-yl)pyrrolidin-1-yl)methyl)pyridine], with < 10 mg/kg.
Take `c1ccc(CCC2(C3CCCO3)CCN(Cc3cnn(-c4cccnc4)c3)C2)cc1` (stereo not drawn) [Compound 265, 3-(4-((3-phenethyl-3-(tetrahydrofuran-2-yl)pyrrolidin-1-yl)methyl)-1H-pyrazol-1-yl)pyridine]: the ED50 is > 10 mg/kg.
Then `CCOCC1(CCc2ccc(C)s2)CCN(Cc2cnn(C)c2)CC1` [Compound 266, 4-(ethoxymethyl)-1-((1-methyl-1H-pyrazol-4-yl)methyl)-4-(2-(5-methylthiophen-2-yl)ethyl)piperidine], with > 10 mg/kg; and `CCOCC1(CCc2cc(C)cs2)CCN(Cc2cnn(C)c2)CC1` [Compound 267, 4-(ethoxymethyl)-1-((1-methyl-1H-pyrazol-4-yl)methyl)-4-(2-(4-methylthiophen-2-yl)ethyl)piperidine], with < 10 mg/kg.
Next, `CCOCC1(CCc2sccc2C)CCN(Cc2cnn(C)c2)CC1` [Compound 268, 4-(ethoxymethyl)-1-((1-methyl-1H-pyrazol-4-yl)methyl)-4-(2-(3-methylthiophen-2-yl)ethyl)piperidine]: < 10 mg/kg; `CCOC[C@@]1(CCc2ccccc2)CCN(Cc2cccnc2)C1` [Compound 269]: < 10 mg/kg; `CCOCC1(CCc2cccs2)CCN(Cc2cnn(C(C)C)c2)CC1` [Compound 270, 4-(ethoxymethyl)-1-((1-isopropyl-1H-pyrazol-4-yl)methyl)-4-(2-(thiophen-2-yl)ethyl)piperidine HCl]: > 10 mg/kg.
Next, `CCOCC1(CCc2cccs2)CCN(Cc2cnn(Cc3ccccc3)c2)CC1` [Compound 271, 1-((1-benzyl-1H-pyrazol-4-yl)methyl)-4-(ethoxymethyl)-4-(2-(thiophen-2-yl)ethyl)piperidine]: > 10 mg/kg; `C1=CC(C2(CCc3ccsc3)CCN(Cc3cccnc3)C2)OC1` (stereo not drawn) [Compound 272, 3-((3-(2,5-dihydrofuran-2-yl)-3-(2-(thiophen-yl)ethyl)pyrrolidin-1-yl)methyl)pyridine]: < 10 mg/kg.
For the compound `Cc1ccc(CN2CCC(CCc3ccccc3)(C3CCCO3)C2)c(C)n1` (stereo not drawn) [Compound 273, 2,6-dimethyl-3-((3-phenethyl-3-(tetrahydrofuran-2-yl)pyrrolidin-1-yl)methyl)pyridine], the ED50 was < 10 mg/kg.
Next, `COc1ccc(CN2CCC(CCc3ccccc3)(C3CCCO3)C2)cn1` (stereo not drawn) [Compound 274, 2-methoxy-5-((3-phenethyl-3-(tetrahydrofuran-2-yl)pyrrolidin-1-yl)methyl)pyridine]: > 10 mg/kg.
Next, `CCOC[C@@]1(CCc2cccs2)CCN(Cc2cccnc2)C1` [Compound 275, (S)-3-((3-(ethoxymethyl)-3-(2-(thiophen-2-yl)ethyl)pyrrolidin-1-yl)methyl)pyridine]: < 10 mg/kg; `CCOCC1(CCc2ccccc2)CCN(Cc2ccc(C)nc2)C1` (stereo not drawn) [Compound 276, 5-((3-(ethoxymethyl)-3-phenethylpyrrolidin-1-yl)methyl)-2-methylpyridine]: < 10 mg/kg.
Then `CCOCC1(CCc2ccsc2)CCN(Cc2ccc(C)nc2)C1` (stereo not drawn) [Compound 277, 5-((3-(ethoxymethyl)-3-(2-(thiophen-3-yl)ethyl)pyrrolidin-l-yl)methyl)-2-methylpyridine], with < 10 mg/kg; and `CCOCC1(CCc2ccsc2C)CCN(Cc2cnn(C)c2)CC1` [Compound 278, 4-(ethoxymethyl)-1-((1-methyl-1H-pyrazol-4-yl)methyl)-4-(2-(2-methylthiophen-3-yl)ethyl)piperidine], with < 10 mg/kg.
For `CCOCC1(CCc2csc(C)c2)CCN(Cc2cnn(C)c2)CC1` [Compound 279, 4-(ethoxymethyl)-1-((1-methyl-1H-pyrazol-4-yl)methyl)-4-(2-(5-methylthiophen-3-yl)ethyl)piperidine], the ED50 is > 10 mg/kg.
With `CCOCC1(CCc2cscc2C)CCN(Cc2cnn(C)c2)CC1` [Compound 280, 4-(ethoxymethyl)-1-((1-methyl-1H-pyrazol-4-yl)methyl)-4-(2-(4-methylthiophen-3-yl)ethyl)piperidine], the ED50 was < 10 mg/kg.
Next, `CCOCC1(CCc2cc(C)sc2C)CCN(Cc2cnn(C)c2)CC1` [Compound 281, 4-(2-(2,5-dimethylthiophen-3-yl)ethyl)-4-(ethoxymethyl)-1-((1-methyl-1H-pyrazol-4-yl)methyl)piperidine]: > 10 mg/kg.
Next, `CCOCC1(CCc2c(C)csc2C)CCN(Cc2cnn(C)c2)CC1` [Compound 282, 4-(2-(2,4-dimethylthiophen-3-yl)ethyl)-4-(ethoxymethyl)-1-((1-methyl-1H-pyrazol-4-yl)methyl)piperidine]: > 10 mg/kg.
Then `CCOCC1(CCc2sccc2C)CCN(Cc2cccnc2)C1` (stereo not drawn) [Compound 283, 3-((3-(ethoxymethyl)-3-(2-(3-methylthiophen-2-yl)ethyl)pyrrolidin-1-yl)methyl)pyridine], with < 10 mg/kg; and `CCOCC1(CCc2cc(C)cs2)CCN(Cc2cccnc2)C1` (stereo not drawn) [Compound 284, 3-((3-(ethoxymethyl)-3-(2-(4-methylthiophen-2-yl)ethyl)pyrrolidin-1-yl)methyl)pyridine], with < 10 mg/kg; and `CCOCC1(CCc2ccc(C)s2)CCN(Cc2cccnc2)C1` (stereo not drawn) [Compound 285, 3-((3-(ethoxymethyl)-3-(2-(5-methylthiophen-2-yl)ethyl)pyrrolidin-1-yl)methyl)pyridine], with > 10 mg/kg.
For the compound `CCOCC1(CCc2ccsc2C)CCN(Cc2cccnc2)C1` (stereo not drawn) [Compound 286, 3-((3-(ethoxymethyl)-3-(2-(2-methylthiophen-yl)ethyl)pyrrolidin-1-yl)methyl)pyridine], the ED50 was < 10 mg/kg.

Values taken from patent US11584765B2 (priority 2017, dated 2023).
